Data from ChEMBL document CHEMBL1201862, “PubChem BioAssay data set” (2004).
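Test compounds were applied to cells in 96-well plates for 48 hours at 5 doses. At the GI50, growth is halved.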 Calls of active or inactive are those of the source. Cut-off read from the data, not from the text of the source: active = GI50 up to about 1.1 µM and inactive = higher.

Legend:
Assay in all cases: NCI anticancer screen, dose series, 48 h
A498 = tested on: A498
HCC 2998 = tested on: HCC 2998
RPMI-8226 = tested on: RPMI-8226
HOP-92 = tested on: HOP-92
MCF7 = tested on: MCF7
LOX IMVI = tested on: LOX IMVI
SK-MEL-2 = tested on: SK-MEL-2
SNB-75 = tested on: SNB-75
CAKI-1 = tested on: CAKI-1
SF-295 = tested on: SF-295
A549 = tested on: A549
RXF 393 = tested on: RXF 393
Malme-3M = tested on: Malme-3M
DU-145 = tested on: DU-145
NCI-H226 = tested on: NCI-H226
NCI/ADR-RES = tested on: NCI/ADR-RES
T47D = tested on: T47D
ACHN = tested on: ACHN
HCT-15 = tested on: HCT-15
SR = tested on: SR

Compound | GI50 (A498) | GI50 (HCC 2998) | GI50 (RPMI-8226) | GI50 (HOP-92) | GI50 (MCF7) | GI50 (LOX IMVI) | GI50 (SK-MEL-2) | GI50 (SNB-75) | GI50 (CAKI-1) | GI50 (SF-295) | GI50 (A549) | GI50 (RXF 393) | GI50 (Malme-3M) | GI50 (DU-145) | GI50 (NCI-H226) | GI50 (NCI/ADR-RES) | GI50 (T47D) | GI50 (ACHN) | GI50 (HCT-15) [µM] | GI50 (SR)
CCCCCCCCSC1=C(Cl)C(=O)C(OC)=C(OC)C1=O | 12.3 µM (inactive) | 15.2 µM (inactive) | 0.52 µM (active) | 17 µM (inactive) | 3.94 µM (inactive) | 4.57 µM (inactive) | 15.4 µM (inactive) | 19.1 µM (inactive) | 12.3 µM (inactive) | 12.5 µM (inactive) | 17.9 µM (inactive) | 13.2 µM (inactive) | 7.73 µM (inactive) | 15.1 µM (inactive) | 12.4 µM (inactive) | 17.4 µM (inactive) | 5.08 µM (inactive) | 10 µM (inactive) | 6.34 | 
Brc1cccc(C2(CCCC3(c4cccc(Br)n4)OCCO3)OCCO2)n1 | > 100 µM (inactive) | > 100 µM (inactive) | > 100 µM (inactive) | > 100 µM (inactive) | > 100 µM (inactive) | > 100 µM (inactive) | > 100 µM (inactive) | 23.9 µM (inactive) | > 100 µM (inactive) | 68.7 µM (inactive) | > 100 µM (inactive) | 72.4 µM (inactive) |  |  | > 100 µM (inactive) | > 100 µM (inactive) | > 100 µM (inactive) | > 100 µM (inactive) | > 100 | 
CSc1nc(-c2ccc(C)cc2)c(C#N)c(=O)[nH]1 | > 100 µM (inactive) | > 100 µM (inactive) | > 100 µM (inactive) | 85.3 µM (inactive) | > 100 µM (inactive) |  | > 100 µM (inactive) | 43.7 µM (inactive) | > 100 µM (inactive) | > 100 µM (inactive) | > 100 µM (inactive) | > 100 µM (inactive) |  | > 100 µM (inactive) | > 100 µM (inactive) | > 100 µM (inactive) | 40.5 µM (inactive) | > 100 µM (inactive) | > 100 | 
COc1ccc(C2=C(OC(=O)N(C)C)c3cccn3-c3cc(Cl)ccc3S2)cc1 |  | > 10 µM (inactive) | 2.73 µM (inactive) | 6.78 µM (inactive) | 8.51 µM (inactive) | > 10 µM (inactive) |  | > 10 µM (inactive) | > 10 µM (inactive) | > 10 µM (inactive) | > 10 µM (inactive) | > 10 µM (inactive) | > 10 µM (inactive) | > 10 µM (inactive) |  |  | 5.3 µM (inactive) |  | > 10 | 6.38 µM (inactive)
C=CCOC1=C(OC(C)=O)C(C2COC(C)(C)O2)OC1=O (stereo not given) | > 100 µM (inactive) | 38.2 µM (inactive) | 22.1 µM (inactive) | 17.7 µM (inactive) | 16.7 µM (inactive) | 11.7 µM (inactive) | 35.6 µM (inactive) | 71.3 µM (inactive) | 1.95 µM (inactive) | 36 µM (inactive) | 24 µM (inactive) | 21.2 µM (inactive) | 18.8 µM (inactive) | 36.6 µM (inactive) | 95.3 µM (inactive) | 31.5 µM (inactive) | 18.5 µM (inactive) | 17.9 µM (inactive) | 16.3 | 
CCOC(O)(NC(=O)C(C(F)(F)F)C(F)(F)F)C(F)(F)F (stereo not given) | > 100 µM (inactive) | > 100 µM (inactive) | > 100 µM (inactive) |  |  | > 100 µM (inactive) | > 100 µM (inactive) | > 100 µM (inactive) |  |  | > 100 µM (inactive) | > 100 µM (inactive) |  |  |  | > 100 µM (inactive) | > 100 µM (inactive) | > 100 µM (inactive) | > 100 | > 100 µM (inactive)
